Values belong to the compound of their own block, whether it stands above or below them.
Assay: solvent given as SMILES

absorption maximum (in ClCCl): 423 nm
SMILES: CN(C)c1ccc(/C=C/c2cc(/C=C/c3ccc(N(C)C)cc3)nc(/C=C/c3ccccc3)n2)cc1

absorption maximum (in C1CCCCC1): 308 nm
SMILES: CC(C)(C)c1ccc2c(c1)Cc1cc(C(C)(C)C)ccc1-2

absorption maximum (in ClCCl): 438 nm
SMILES: Cc1cc(-c2cccc3ccccc23)cc(C)[o+]1

absorption maximum (in ClC(Cl)Cl): 482 nm
SMILES: CCCCCCCCCCCCOc1cc2c3cc(OCCCCCCCCCCCC)c(OCCCCCCCCCCCC)cc3c3c(cc(OCCCCCCCCCCCC)c4nc5cc(C#Cc6ccc(CCCCCCCCCC)cc6)c(C#Cc6ccc(CCCCCCCCCC)cc6)cc5nc43)c2cc1OCCCCCCCCCCCC

absorption maximum (in C1CCOC1): 340 nm
SMILES: CCC1(CC)c2cc(-c3cccs3)ccc2-c2c1c1c(c3c2C(CC)(CC)c2cc(-c4cccs4)ccc2-3)C(CC)(CC)c2cc(-c3cccs3)ccc2-1

absorption maximum (in C1CCOC1): 338 nm
SMILES: CCC1(CC)c2cc(Br)ccc2-c2c1c1c(c3c2C(CC)(CC)c2cc(-c4cccs4)ccc2-3)C(CC)(CC)c2cc(-c3cccs3)ccc2-1

absorption maximum (in ClCCl): 376 nm
SMILES: c1cc(-c2c3ccccc3c(-c3ccc4ccccc4c3)c3ccccc23)cc(-n2c3ccccc3c3ccccc32)c1

absorption maximum (in CC#N): 340 nm
SMILES: COc1ccc(-n2nc(C#N)c(N3CCCCC3)n2)cc1

absorption maximum (in CS(C)=O): 391 nm
SMILES: C(/C=C/Nc1cccc2ccccc12)=[NH+]c1cccc2ccccc12

absorption maximum (in ClCCl): 544 nm
SMILES: CC1=C2C=CC(c3ccccc3)=[N+]2[B-](F)(F)n2c1ccc2-c1ccccc1

absorption maximum (in ClCCl): 422 nm
SMILES: CCCCOc1c(-c2ccc(N(c3ccccc3)c3ccccc3)cc2)cc2cc(-c3ccc(N(c4ccccc4)c4ccccc4)cc3)c(OCCCC)c3c4c(OCCCC)c(-c5ccc(N(c6ccccc6)c6ccccc6)cc5)cc5cc(-c6ccc(N(c7ccccc7)c7ccccc7)cc6)c(OCCCC)c(c1c23)c54

absorption maximum (in C1CCOC1): 585 nm
SMILES: CC1=[N+]2C(=C(c3ccccc3)c3ccc(/C=C/c4ccc(C(=C(c5ccccc5)c5ccccc5)c5ccccc5)cc4)n3[B-]2(F)F)C=C1

absorption maximum (in ClCCl): 309 nm
SMILES: Clc1ccc(N2c3c(sc4ccccc34)Sc3sc4ccccc4c32)cc1

absorption maximum (in ClCCl): 384 nm
SMILES: Cc1cccc(C)c1/C=C/c1nc(N2CCOCC2)c2c([n+]1[O-])CCCC2

absorption maximum (in ClCCl): 500 nm
SMILES: COc1ccc(C2=C(c3ccc(OC)cc3)c3cccc4c3c(cc3nc5ccccc5nc34)O2)cc1

absorption maximum (in O): 410 nm
SMILES: O=C(O)CCCCCn1c2ccccc2c(=O)c2ccccc21

absorption maximum (in CCCCCC): 338 nm
absorption maximum (in CO): 338 nm
absorption maximum (in ClCCl): 341 nm
SMILES: CCCCc1ccc2ccc3cccc4ccc1c2c34

absorption maximum (in ClCCl): 280 nm
SMILES: CN(C)c1ccc(-c2cc(-c3ccccc3)nn2C)cc1

absorption maximum (in CC#N): 396 nm
absorption maximum (in CO): 400 nm
SMILES: O=C1c2ccccc2-c2c(-c3ccc([N+](=O)[O-])cc3)c(-c3ccc([N+](=O)[O-])cc3)c(-c3ccccc3)c3cccc1c23

absorption maximum (in C1CCCCC1): 409 nm
SMILES: Cc1cc(C)c(B2c3cc(C(C)(C)C)ccc3-c3cccc4cc(C(C)(C)C)cc2c34)c(C)c1

absorption maximum (in CN(C)C=O): 648 nm
absorption maximum (in ClC(Cl)Cl): 648 nm
SMILES: CCCCCCCCCCOc1ccc2c3c(oc2c1)C1=C2C(=O)N4C=Cc5c(oc6cc(OCCCCCCCCCC)ccc56)C4=C2C(=O)N1C=C3

absorption maximum (in CN(C)C=O): 523 nm
SMILES: NCCCCCCCCCCCCN1C(=O)c2ccc3c4ccc5c6c(ccc(c7ccc(c2c37)C1=O)c64)C(=O)N(CCCCCCCCCCCCN)C5=O

absorption maximum (in CC#N): 400 nm
absorption maximum (in ClCCl): 404 nm
SMILES: COC(=O)c1cc(=O)n(C)c2cc(-c3ccc4c(c3)OCO4)sc12

absorption maximum (in O): 306 nm
SMILES: O=c1ccc2ccccc2o1

absorption maximum (in C1CCCCC1): 298 nm
absorption maximum (in C1CCOC1): 298 nm
absorption maximum (in C1COCCO1): 297 nm
absorption maximum (in CC#N): 295 nm
absorption maximum (in CCCCCC): 297 nm
absorption maximum (in CO): 293 nm
absorption maximum (in ClC(Cl)Cl): 300 nm
SMILES: F[B-]1(F)n2ccnc2-c2cccc[n+]21

absorption maximum (in C1CCOC1): 340 nm
SMILES: c1ccc(-n2c3ccccc3c3cc(-c4ccc5nc(-c6ccc(-n7c8ccccc8c8ccccc87)cc6)nn5c4)ccc32)cc1

absorption maximum (in CC#N): 504 nm
absorption maximum (in CCCCCC): 514 nm
absorption maximum (in CCOC(C)=O): 506 nm
absorption maximum (in CO): 497 nm
absorption maximum (in ClCCl): 515 nm
SMILES: COC1=[N+]2C(=C(c3ccccc3)c3ccc(OC)n3[B-]2(F)F)C=C1SC#N

absorption maximum (in CC#N): 433 nm
absorption maximum (in CO): 433 nm
absorption maximum (in CS(C)=O): 434 nm
absorption maximum (in ClC(Cl)Cl): 434 nm
SMILES: CCC1=C(C)c2cc3c(OC)cc(OC)cc3c(=O)n2C1=O

absorption maximum (in CC#N): 372 nm
SMILES: COc1ccc(-c2csc(/C(C#N)=C/c3ccccc3Cl)n2)cc1

The remaining lines, values behind:

SMILES: CCCCCCCCCCCCC(CCCCCCCCCC)Cn1c2cc(/C=C/C=C(C#N)C#N)c3cccc4c5cccc6c(/C=C/C=C(C#N)C#N)cc1c(c65)c2c34 (centres undefined)
absorption maximum (in C1CCCCC1): 638 nm
absorption maximum (in CC#N): 599 nm
absorption maximum (in Cc1ccccc1): 597 nm
absorption maximum (in ClCCl): 611 nm

SMILES: COc1ccc(C2=C(c3ccccc3)C(c3ccccc3)=[N+]3C2=Nc2c(-c4ccc(OC)cc4)c(-c4ccccc4)c(-c4ccccc4)n2[B-]3(F)F)cc1
absorption maximum (in Cc1ccccc1): 656 nm

SMILES: CN(C)c1ccc(/C=C2/N=C(c3ccccc3)OC2=O)cc1
absorption maximum (in C1CCCCC1): 456 nm
absorption maximum (in C1COCCO1): 466 nm
absorption maximum (in CC#N): 473 nm
absorption maximum (in CC(C)=O): 470 nm
absorption maximum (in CC(C)O): 470 nm
absorption maximum (in CCCCCC): 443 nm
absorption maximum (in CCCCCO): 470 nm
absorption maximum (in CCCCO): 472 nm
absorption maximum (in CCO): 470 nm
absorption maximum (in CN(C)C=O): 482 nm
absorption maximum (in CO): 473 nm
absorption maximum (in ClC(Cl)(Cl)Cl): 466 nm
absorption maximum (in ClC(Cl)Cl): 472 nm
absorption maximum (in ClCCl): 472 nm

SMILES: Nc1cccc2cc3ccccc3cc12
absorption maximum (in C1CCCCC1): 384.17 nm

SMILES: CN(C)c1ccc2[c](c1)[Sn]([CH3])([CH3])[C]1=CC(=[N+](C)C)C=CC1=C2
absorption maximum (in O): 614 nm

SMILES: N#Cc1c(-n2c3ccccc3c3cc(I)ccc32)c(C#N)c(-n2c3ccccc3c3cc(I)ccc32)c(-n2c3ccccc3c3cc(I)ccc32)c1-n1c2ccccc2c2cc(I)ccc21
absorption maximum (in Cc1ccccc1): 383 nm

SMILES: CCCCCCCCCCCCCCCCCCOc1ccc(C#Cc2cc3nc4c(OCCCCCCCCCCCC)cc5c6cc(OCCCCCCCCCCCC)c(OCCCCCCCCCCCC)cc6c6cc(OCCCCCCCCCCCC)c(OCCCCCCCCCCCC)cc6c5c4nc3cc2C#Cc2ccc(OCCCCCCCCCCCCCCCCCC)cc2)cc1
absorption maximum (in ClC(Cl)Cl): 487 nm

SMILES: COC1=[N+]2C(=C(c3ccc(C)cc3)c3ccc(OC)n3[B-]2(F)F)C=C1
absorption maximum (in C1CCCCC1): 513 nm
absorption maximum (in C1CCOC1): 514 nm
absorption maximum (in CC#N): 510 nm
absorption maximum (in CCOC(C)=O): 512 nm
absorption maximum (in CO): 510 nm
absorption maximum (in Cc1ccccc1): 517 nm
absorption maximum (in ClC(Cl)Cl): 516 nm

SMILES: CSc1nc(-c2ccc(-n3c4ccccc4c4ccccc43)cc2)cc(-c2ccc(-n3c4ccccc4c4ccccc43)cc2)n1
absorption maximum (in C1CCOC1): 363 nm
absorption maximum (in CN(C)C=O): 364 nm
absorption maximum (in Cc1ccccc1): 364 nm
absorption maximum (in ClC(Cl)Cl): 364 nm

SMILES: c1cc2ccc3[se]c4ccc5cccc6c(c1)c2c3c4c56
absorption maximum (in ClC(Cl)Cl): 416.5 nm

SMILES: CN(C)c1ccc(C(=O)Nc2ccccc2)cc1
absorption maximum (in C1CCCCC1): 307 nm
absorption maximum (in C1CCOC1): 311 nm
absorption maximum (in CC#N): 314 nm
absorption maximum (in CCOCC): 307 nm

SMILES: Cc1csc(C)c1C1=C(c2c(C)sc(-c3ccc(-c4nc(-c5ccccc5)c(-c5ccccc5)[nH]4)cc3)c2C)C(F)(F)C(F)(F)C1(F)F
absorption maximum (in C1CCOC1): 339 nm

SMILES: Cc1cc(C)c(B(c2c(C)cc(C)cc2C)c2c(C)cc(-n3c4ccc(N(c5ccccc5)c5ccccc5)cc4c4cc(N(c5ccccc5)c5ccccc5)ccc43)cc2C)c(C)c1
absorption maximum (in Cc1ccccc1): 387 nm

SMILES: COCCC1=Cc2nc1ccc1[nH]c(cc1CCOC)c1nc(ccc3[nH]c2cc3CCO)C(CCOC)=C1
absorption maximum (in Cc1ccccc1): 637 nm

SMILES: COc1ccc(/C=C/C2=[O+][B-](F)(F)OC(/C=C/c3ccc(OC)cc3)=C2c2ccc(OC)cc2)cc1
absorption maximum (in ClCCl): 506 nm

SMILES: CCCCCCCCN(CCCCCCCC)c1ccc(/C=C/c2ccc(C#Cc3ccc(-c4ccc(C#Cc5ccc(/C=C/c6ccc(N(CCCCCCCC)CCCCCCCC)cc6)cc5)cc4)cc3)cc2)cc1
absorption maximum (in Cc1ccccc1): 406 nm

SMILES: CC(C)(C)c1ccc(N(c2ccc(S(=O)(=O)c3ccc(S(=O)(=O)c4ccc(N(c5ccc(C(C)(C)C)cc5)c5ccccc5C(C)(C)C)cc4)cc3)cc2)c2ccccc2C(C)(C)C)cc1
absorption maximum (in Cc1ccccc1): 351 nm

SMILES: C(#Cc1c(C#Cc2cccs2)c(C#Cc2cccs2)c(C#Cc2cccs2)c(C#Cc2cccs2)c1C#Cc1cccs1)c1cccs1
absorption maximum (in ClCCl): 371 nm

SMILES: O=C1c2cc3ccccc3cc2C2=Nc3ccc4ccccc4[n+]3[B-](F)(F)N12
absorption maximum (in ClCCl): 419 nm

SMILES: CCC1(CC)c2cc(/C=C/c3ccc(/C=C/c4ccc5c(c4)C(CC)(CC)c4cc(N6c7ccccc7Sc7ccccc76)ccc4-5)cc3)ccc2-c2ccc(N3c4ccccc4Sc4ccccc43)cc21
absorption maximum (in C1CCOC1): 444.73 nm
absorption maximum (in CC#N): 441.5 nm
absorption maximum (in CCCCCC): 440.65 nm
absorption maximum (in Cc1ccccc1): 446.43 nm
absorption maximum (in ClCCl): 418 nm

SMILES: Cc1cc(-c2ccc(-n3c4ccccc4c4ccccc43)cc2)nc(-c2ccc(-c3ccccc3)cc2)n1
absorption maximum (in C1CCOC1): 341 nm
absorption maximum (in CN(C)C=O): 341 nm
absorption maximum (in Cc1ccccc1): 341 nm
absorption maximum (in ClC(Cl)Cl): 341 nm

SMILES: CCC1=C(C)C2=C(c3c4ccccc4c(C)c4ccccc34)c3c(C)c(CC)c(C)n3[B-](F)(F)[N+]2=C1C
absorption maximum (in CC#N): 527 nm
absorption maximum (in CCCCCC): 529 nm
absorption maximum (in CCO): 528 nm
absorption maximum (in CN(C)C=O): 530 nm
absorption maximum (in Cc1ccccc1): 532 nm
absorption maximum (in ClCCl): 531 nm

SMILES: O=C(/C=C/c1cn(-c2ccccc2)nc1-c1ccccc1)c1c(O)c2ccccc2oc1=O
absorption maximum (in C1CCOC1): 406 nm
absorption maximum (in C1COCCO1): 405 nm
absorption maximum (in CCO): 400 nm
absorption maximum (in CCOC(C)=O): 402 nm
absorption maximum (in CN(C)C=O): 381 nm
absorption maximum (in CO): 352 nm
absorption maximum (in CS(C)=O): 401 nm
absorption maximum (in Cc1ccccc1): 409 nm
absorption maximum (in ClC(Cl)Cl): 405 nm
absorption maximum (in ClCCl): 404 nm
